Experimental data reported in US20250205259A1, “CLASS OF 7-((FIVE-MEMBERED HETEROCYCLIC)METHYL)-8-CARBOXYLIC ACID-BENZO CYCLIC BORATE DERIVATIVES AND USES THEREOF” (priority 2022, published 2025).
Read-outs that look alike come from different tables or passages of the source.

Key:
Assay type in all cases: biochemical
[1] = target: KPC-2 (Klebsiella pneumoniae, UniProt Q9F663); test: Inhibitory activity on SBL, fluorescent substrate FC-5
[2] = target: OXA-48 (Klebsiella pneumoniae, UniProt Q6XEC0); test: as above
Sequence of OXA-48 (Q6XEC0 23-265 limits assumed): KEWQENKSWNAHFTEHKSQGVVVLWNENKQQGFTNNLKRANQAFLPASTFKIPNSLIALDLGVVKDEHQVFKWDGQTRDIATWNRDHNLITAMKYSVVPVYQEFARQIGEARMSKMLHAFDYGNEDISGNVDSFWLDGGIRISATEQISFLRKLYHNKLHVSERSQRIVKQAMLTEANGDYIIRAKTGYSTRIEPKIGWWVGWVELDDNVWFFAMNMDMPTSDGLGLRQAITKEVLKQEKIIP

[3] = target: NDM-1 (Klebsiella pneumoniae, UniProt C7C422); test: Inhibitory activity on MBL, fluorescent substrate FC-5
Sequence of NDM-1 (C7C422 29-270 limits assumed): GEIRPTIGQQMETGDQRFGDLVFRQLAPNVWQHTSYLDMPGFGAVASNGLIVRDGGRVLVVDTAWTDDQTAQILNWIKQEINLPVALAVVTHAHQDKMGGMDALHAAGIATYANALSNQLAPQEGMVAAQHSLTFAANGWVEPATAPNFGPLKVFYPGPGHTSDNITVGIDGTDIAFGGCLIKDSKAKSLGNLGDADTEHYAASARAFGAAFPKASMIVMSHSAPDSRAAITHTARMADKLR

[4] = target: NDM-5 (Klebsiella pneumoniae, UniProt C7C422, M154L/V88L); test: as above
Sequence of NDM-5 (C7C422 29-270 V88L/M154L): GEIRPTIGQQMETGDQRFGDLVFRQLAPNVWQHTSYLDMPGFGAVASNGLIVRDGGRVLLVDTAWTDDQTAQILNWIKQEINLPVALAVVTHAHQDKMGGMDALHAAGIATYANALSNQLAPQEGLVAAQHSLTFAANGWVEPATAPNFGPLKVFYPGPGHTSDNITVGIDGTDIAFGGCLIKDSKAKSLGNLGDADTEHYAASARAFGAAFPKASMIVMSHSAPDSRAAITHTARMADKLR

[5] = target: IMP-1 (Serratia marcescens, UniProt P52699); test: as above
Sequence of IMP-1 (P52699 19-246 limits assumed): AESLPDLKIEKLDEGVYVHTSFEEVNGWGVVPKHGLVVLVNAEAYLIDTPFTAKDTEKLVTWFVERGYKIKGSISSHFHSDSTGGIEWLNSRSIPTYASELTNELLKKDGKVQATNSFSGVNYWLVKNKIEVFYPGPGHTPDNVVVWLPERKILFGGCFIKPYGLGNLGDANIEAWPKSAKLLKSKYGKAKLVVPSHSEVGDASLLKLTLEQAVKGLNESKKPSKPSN

[6] = target: VIM-1 (Pseudomonas aeruginosa, UniProt A0A0F7KYQ8); test: as above
[7] = target: VIM-2 (Escherichia coli, UniProt Q5U7L7); test: as above
[8] = target: TEM-1 (Escherichia coli, UniProt P62593); test: Inhibitory activity on SBL, fluorescent substrate FC-5; conditions: for IC50: read-out: Inhibitory activity on SBL TEM-1 (IC50 class)
Sequence of TEM-1 (P62593 24-286 limits assumed): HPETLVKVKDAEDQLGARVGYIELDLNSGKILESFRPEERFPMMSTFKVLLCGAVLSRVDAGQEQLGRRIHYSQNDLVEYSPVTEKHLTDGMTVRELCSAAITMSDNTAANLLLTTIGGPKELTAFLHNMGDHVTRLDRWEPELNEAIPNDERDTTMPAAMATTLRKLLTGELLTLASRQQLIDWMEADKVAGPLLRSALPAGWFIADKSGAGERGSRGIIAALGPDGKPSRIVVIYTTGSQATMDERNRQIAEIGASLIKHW

[9] = target: CTX-M-14 (Escherichia coli, UniProt Q9L5C7); test: as above
Sequence of CTX-M-14 (Q9L5C7 entry or part of it): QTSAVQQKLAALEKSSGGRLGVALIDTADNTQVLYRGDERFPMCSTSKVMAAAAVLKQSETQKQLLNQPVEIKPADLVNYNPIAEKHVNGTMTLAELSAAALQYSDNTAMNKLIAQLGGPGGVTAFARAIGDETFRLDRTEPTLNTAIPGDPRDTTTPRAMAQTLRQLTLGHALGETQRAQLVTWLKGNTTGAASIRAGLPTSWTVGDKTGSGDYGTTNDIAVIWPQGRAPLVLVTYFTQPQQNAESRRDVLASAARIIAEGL

[10] = salts, read-out: inhibitory activity at a nanomolar-level on KPC-2
[11] = salts, read-out: inhibitory activity at a nanomolar-level on OXA-48
[12] = read-out: Inhibitory activity on SBL KPC-2 (IC50 class)
[13] = read-out: Inhibitory activity on MBL NDM-1 (IC50 class)
[14] = read-out: Inhibitory activity on MBL NDM-5 (IC50 class)
[15] = read-out: Inhibitory activity on MBL IMP-1 (IC50 class)
[16] = read-out: Inhibitory activity on MBL VIM-1 (IC50 class)
[17] = read-out: Inhibitory activity on MBL VIM-2 (IC50 class)
[18] = read-out: Inhibitory activity on SBL CTX-M-14 (IC50 class)
[19] = read-out: Inhibitory activity on SBL OXA-48 (IC50 class)
[20] = VIM-1 and/or VIM-2, read-out: inhibitory activity at a nanomolar-level on VIM-1 and/or VIM-2
[21] = Inhibitory activity on MBL VIM-1 (IC50 class)
[22] = Inhibitory activity on SBL OXA-48 (IC50 class)
[23] = IMP-1 and/or IMP-4, read-out: inhibitory activity at a nanomolar-level on IMP-1 and/or IMP-4
[24] = read-out: inhibitory activity at a nanomolar-level on NDM-1
[25] = read-out: inhibitory activity at a nanomolar-level on NDM-5

Sequence of KPC-2 (Q9F663 25-293 limits assumed): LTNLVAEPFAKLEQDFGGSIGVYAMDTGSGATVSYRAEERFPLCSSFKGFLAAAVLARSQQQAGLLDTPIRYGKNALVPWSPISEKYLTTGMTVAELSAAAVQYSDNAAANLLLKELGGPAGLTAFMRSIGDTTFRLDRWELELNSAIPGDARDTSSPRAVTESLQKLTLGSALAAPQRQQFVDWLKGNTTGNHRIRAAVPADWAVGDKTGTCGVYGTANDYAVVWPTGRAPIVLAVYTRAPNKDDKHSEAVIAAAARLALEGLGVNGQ

SMILES	IC50 [1, 10] [nM]	IC50 [1, 12] [nM]	IC50 [3, 13] [nM]	IC50 [4, 14] [nM]	IC50 [5, 15] [nM]	IC50 [6, 16] [nM]	IC50 [7, 17] [nM]	IC50 [8] [nM]	IC50 [9, 18] [nM]	IC50 [2, 19] [nM]	other results
NCc1cnn(Cc2ccc3c(c2C(=O)O)OB(O)CC3)c1 [21-phosphoric acid]	< 10	–	–	–	–	–	–	–	–	–	IC50 [2, 11]: < 10 nM
NC1(c2cn(Cc3ccc4c(c3C(=O)O)OB(O)CC4)nn2)CC1 [41-propionic acid]	< 10	–	–	–	–	–	–	–	–	–	–
NCCc1cnn(Cc2ccc3c(c2C(=O)O)OB(O)CC3)c1 [43-maleic acid]	< 10	–	–	–	–	–	–	–	–	–	–
N=C(N)N1Cc2cn(Cc3ccc4c(c3C(=O)O)OB(O)CC4)nc2C1 [58-toluene sulfonic acid]	< 10	–	–	–	–	–	–	–	–	–	IC50 [2, 11]: < 10 nM
NCCc1ccc(-c2cn(Cc3ccc4c(c3C(=O)O)OB(O)CC4)nn2)cc1 [63-tartaric acid]	< 10	< 10	–	–	–	–	–	–	–	–	–
N=C(N)NCc1ccc(-c2cn(Cc3ccc4c(c3C(=O)O)OB(O)CC4)nn2)cc1 [64-citric acid]	< 10	–	–	–	–	–	–	–	–	–	IC50 [2, 11]: < 10 nM
O=C(O)c1c(Cn2ncc3c2CNC3)ccc2c1OB(O)CC2 [66-oxalic acid]	< 10	–	–	–	–	–	–	–	–	–	IC50 [2, 11]: < 10 nM
NCc1cn(Cc2ccc3c(c2C(=O)O)OB(O)CC3)nn1 [Compound 7]	–	10 to 1000	1000 to 100000	1000 to 100000	1000 to 100000	1000 to 100000	1000 to 100000	10 to 1000	10 to 1000	10 to 1000	–
NCCc1cn(Cc2ccc3c(c2C(=O)O)OB(O)CC3)nn1 [Compound 8]	–	10 to 1000	1000 to 100000	10 to 1000	1000 to 100000	1000 to 100000	10 to 1000	10 to 1000	10 to 1000	10 to 1000	IC50 [6, 20]: < 1000 nM
NCc1cnn(Cc2ccc3c(c2C(=O)O)OB(O)CC3)c1 [Compound 21]	–	< 10	–	–	–	–	–	–	–	< 10	–
O=C(O)c1c(Cn2nccn2)ccc2c1OB(O)C1CC21 (centres unmarked) [Compound 27]	–	–	–	1000 to 100000	–	–	–	10 to 1000	–	–	IC50 [3]: 1000 to 100000 nM; IC50 [5]: 1000 to 100000 nM; IC50 [6, 21]: 1000 to 100000 nM; IC50 ([6]; inhibitory activity at a nanomolar-level on VIM-1 and/or VIM-2, text summary, VIM-1 and/or VIM-2): < 1000 nM; IC50 [7]: 10 to 1000 nM; IC50 [1]: < 10 nM; IC50 [9]: 10 to 1000 nM; IC50 [2, 22]: < 10 nM
O=C(O)c1c(Cn2ccnn2)ccc2c1OB(O)C1CC21 (centres unmarked) [Compound 28]	–	< 10	1000 to 100000	1000 to 100000	10 to 1000	10 to 1000	10 to 1000	10 to 1000	10 to 1000	10 to 1000	IC50 [5, 23]: < 1000 nM; IC50 [6, 20]: < 1000 nM
C[C@H]1Cc2ccc(Cn3ccnn3)c(C(=O)O)c2OB1O [Compound 29]	–	< 10	10 to 1000	10 to 1000	10 to 1000	10 to 1000	10 to 1000	10 to 1000	10 to 1000	10 to 1000	IC50 [3, 24]: < 1000 nM; IC50 [4, 25]: < 1000 nM; IC50 [5, 23]: < 1000 nM; IC50 [6, 20]: < 1000 nM
CO[C@H]1Cc2ccc(Cn3ccnn3)c(C(=O)O)c2OB1O [Compound 30]	–	< 10	10 to 1000	10 to 1000	10 to 1000	10 to 1000	10 to 1000	10 to 1000	10 to 1000	10 to 1000	IC50 [3, 24]: < 1000 nM; IC50 [4, 25]: < 1000 nM; IC50 [5, 23]: < 1000 nM; IC50 [6, 20]: < 1000 nM
NCCNc1cnn(Cc2ccc3c(c2C(=O)O)OB(O)CC3)c1 [Compound 33]	–	< 10	10 to 1000	10 to 1000	1000 to 100000	1000 to 100000	10 to 1000	10 to 1000	10 to 1000	< 10	IC50 [3, 24]: < 1000 nM; IC50 [4, 25]: < 1000 nM
N=C(N)NCc1cnn(Cc2ccc3c(c2C(=O)O)OB(O)CC3)c1 [Compound 37]	–	< 10	10 to 1000	10 to 1000	1000 to 100000	1000 to 100000	10 to 1000	< 10	< 10	< 10	IC50 [3, 24]: < 1000 nM; IC50 [4, 25]: < 1000 nM
N=C(N)Nc1cnn(Cc2ccc3c(c2C(=O)O)OB(O)CC3)c1 [Compound 38]	–	10 to 1000	10 to 1000	10 to 1000	1000 to 100000	1000 to 100000	10 to 1000	10 to 1000	10 to 1000	< 10	IC50 [3, 24]: < 1000 nM; IC50 [4, 25]: < 1000 nM
NC1(c2cn(Cc3ccc4c(c3C(=O)O)OB(O)CC4)nn2)CC1 [Compound 41]	–	< 10	–	–	–	–	10 to 1000	10 to 1000	10 to 1000	10 to 1000	–
NCCc1cnn(Cc2ccc3c(c2C(=O)O)OB(O)CC3)c1 [Compound 43]	–	< 10	–	–	–	–	–	–	–	–	–
N=C(N)N1CC(c2cn(Cc3ccc4c(c3C(=O)O)OB(O)CC4)nn2)C1 [Compound 49-Na]	< 10	–	–	–	–	–	–	–	–	–	–
O=C(O)c1c(Cn2cc3c(n2)CNC3)ccc2c1OB(O)CC2 [Compound 56-Na]	< 10	< 10	10 to 1000	–	1000 to 100000	10 to 1000	10 to 1000	10 to 1000	10 to 1000	< 10	IC50 [2, 11]: < 10 nM
N=C(N)N1Cc2cn(Cc3ccc4c(c3C(=O)O)OB(O)CC4)nc2C1 [Compound 58]	–	< 10	–	–	–	–	–	< 10	–	< 10	–
NCc1ccc(-c2cn(Cc3ccc4c(c3C(=O)O)OB(O)CC4)nn2)cc1 [Compound 63-Na]	< 10	–	–	–	–	–	–	–	–	–	IC50 [2, 11]: < 10 nM
N=C(N)NCc1ccc(-c2cn(Cc3ccc4c(c3C(=O)O)OB(O)CC4)nn2)cc1 [Compound 64]	–	< 10	–	–	–	–	–	–	–	< 10	inhibitory activity on KPC-2 compared to avibactam ([1]; comparison in words): better or comparable; inhibitory activity on TEM-1 compared to avibactam ([8]; comparison in words): better or comparable; inhibitory activity on CTX-M-14 compared to avibactam ([9]; comparison in words): better or comparable; inhibitory activity on OXA-48 compared to avibactam ([2]; comparison in words): better or comparable
O=C(O)c1c(Cn2ncc3c2CNC3)ccc2c1OB(O)CC2 [Compound 66]	–	< 10	–	–	–	–	–	10 to 1000	10 to 1000	< 10	–
C[C@]1(Cn2ccnn2)[C@H](C(=O)O)N2C(=O)C[C@H]2S1(=O)=O [Tazobactam, reference compound]	–	1000 to 100000	> 100000	> 100000	> 100000	–	> 100000	–	–	–	IC50 [6, 21]: > 100000 nM; IC50 [2, 22]: 1000 to 100000 nM
